Measurements taken from US20240166702A1, “COMPOSITIONS AND METHODS FOR TREATING BREAST CANCER” (Arizona Board of Regents on Behalf of The University of …, priority 2021, published 2024).

How the values were obtained:
[1] = test system: WAP-TGFα tumors; experiment: Immune profiling FACS analysis of WAP-TGFα tumors; assay type: in vivo, mouse; details: 3 treated tumors; preliminary FACS
Procedure: Preliminary immune profiling FACS analysis performed with the markers described in Example 1.
To begin to evaluate how these changes indicated by NanoString represented the immune microenvironment of these tumors, Immune Profiling was performed. […] When tumors had regressed to ˜100 mm^3 (after 1-2 weeks of treatment), tumor were excised, treated with collagenase and analyzed by FACS, using a 17-antibody panel to determine cell types present. Data was analyzed by first selecting for CD45+ cells to isolate leukocytes, then further gated based on markers specific to cells of both the adaptive and innate immune system. This preliminary analysis was done with 3 cSNX1.3-treated tumors, and the internal positive control of one spleen. […]
Immune Profiling: Tissues are digested and analyzed by FACS for the following immune markers: CD45 (lymphocytes), CD4 (helper T cells) CD3 (Pan T cell), CD25 (Activated T cells), CD8a (cytotoxic T cells), Ly6G (G-Myeloid Derived Suppressor Cells (MDSC), CD11 b (MDSC), Ly6C (M-M DSC), CD11C (Dendritic Cells), F4/80 (Macrophages), Granzyme B (Natural Killer (NK) and CD8 T cells), Arginase 1 (MDSC), Perforin (NK and CD8 Tcells), iNos (macrophages), TNFα (pro inflammatory cytokine), INFy (pro inflammatory cytokine), FoxP3 (Treg). The samples are run on a Cytek Aurora full spectrum flow cytometer and are optimized for the mouse tissues (FIG. 10). […]

[2] = test system: EGFR dependent mammary gland tumors of WAP-TGFα mice; experiment: Tumor regression study in WAP-TGFα transgenic mice; assay type: in vivo, mouse
Description: Mice were bred continuously to induce transgene expression and palpated weekly for tumor formation. […] A. Changes in tumor size from entry into study until end of study are shown for each individual tumor, (*) indicate tumors that entered the study at size greater than 500 mm^3, all other tumors entered the study at ˜100 mm^3. B. a Kaplan-Meier survival curve was generated showing when mice were sacrificed by either reaching tumor burden (2000 mm^3) or the end of the study (p=0.0002). C. Upon sacrifice tumors were harvested and fixed in 10% formalin and embedded in paraffin. Slides were stained with hematoxylin and eosin and imaged at 20×. D. Protein lysates were generated from tumors upon sacrifice and probed for the indicated proteins.
C. […] D. Cells were treated similarly as in C., fractionated and evaluated for protein localization by immunoblot.
Mice are continually bred to activate the pregnancy-dependent WAP promoter, which drives expression of the EGFR ligand Transforming Growth Factor alpha (TGFα) strictly to the mouse mammary glands. This model stochastically forms unifocal mammary adenocarcinomas through a process that begins with mammary hyperplasia, followed by tumor formation over approximately 8 months. […] No difference in weight or behavior or grooming was observed. Therefore 10 μg/g body weight was used for subsequent studies.
When tumors reached >100 mm^3, IV injections began at 3×/week, 10 μg/g body weight and tumors were measured 3×/week with calipers. Animals were injected for 4 weeks or until they reached maximal tumor burden, defined as a single tumor measuring 2000 mm^3. […] The WAP-TGFα is a spontaneous model in which each tumor arises and progresses in a heterogeneous fashion. Each tumor was evaluated separately to determine the overall impact of SNX1.3 treatment (FIG. 3A). […] In this study, mice were sacrificed after 4 weeks of injections or once they reached tumor burden, represented by the Kaplin-Meyer graph (FIG. 3B).

[3] = test system: pAkt and dpERK; experiment: EGF-dependent Akt and ERK activation in MDA-MB-468 cells; assay type: cell-based, human; details: MDA-MB-468, EGF stimulated
[4] = test system: H1975 cell line with an EGFR driver mutation in the kinase domain (T790M); experiment: MTT cell viability assay in H1975 cells; assay type: cell-based; details: 3 days
[5] = 10 μg/g IV 3×/week, first to last measurement

CC[C@H](C)[C@H](NC(=O)[C@@H](NC(=O)[C@H](Cc1c[nH]cn1)NC(=O)[C@H](CC(N)=O)NC(=O)[C@H](CCCCN)NC(=O)[C@H](C)NC(=O)[C@H](CCCNC(=N)N)NC(=O)[C@H](C)NC(=O)[C@H](CCC(N)=O)NC(=O)[C@H](CCCNC(=N)N)NC(=O)[C@H](C)NC(=O)[C@H](C)NC(=O)[C@H](C)NC(=O)[C@H](CCCNC(=N)N)NC(=O)[C@H](C)NC(=O)[C@H](Cc1ccc(O)cc1)NC(C)=O)C(C)C)C(=O)N[C@@H](CCCCN)C(=O)N[C@@H](Cc1ccc(O)cc1)C(=O)N[C@@H](CC(C)C)C(=O)N[C@@H](CCC(=O)O)C(=O)N[C@H](C(=O)N[C@@H](CC(C)C)C(=O)N[C@@H](CC(C)C)C(=O)N[C@@H](Cc1ccc(O)cc1)C(=O)N[C@@H](CO)C(=O)N[C@@H](CCC(N)=O)C(=O)N[C@@H](CCC(N)=O)C(=O)N[C@@H](CCC(N)=O)C(=O)N[C@@H](CC(C)C)C(=O)N[C@@H](C)C(=O)N[C@@H](CCCCN)C(=O)N[C@@H](Cc1ccc(O)cc1)C(=O)N[C@@H](Cc1c[nH]c2ccccc12)C(=O)N[C@@H](CCC(=O)O)C(=O)N[C@@H](C)C(=O)N[C@@H](Cc1ccccc1)C(=O)N[C@@H](CC(C)C)C(N)=O)[C@@H](C)O [cSNX1.3]
CTLs in tumors [1]: Abundant
M1 macrophages over M2 macrophages (M1/M2 ratio) [1]: high and increase
mice that reached maximal tumor burden (2000 mm^3) before the end of the study ([2]; 10 μg/g IV 3×/week, 4 weeks, p=0.0002 between groups): 1/6
tumors that regressed [2, 5]: 7/11
tumors with no change in tumor volume [2, 5]: 2/11
tumors that grew through the study ([2]; 10 μg/g IV 3×/week, the growing cSNX1.3 tumors entered at greater than 500 mm^3): 2
average tumor regression ([2]; 10 μg/g body weight IV 3×/week, 4 weeks or until tumor burden, n=11 tumors): 4 mm^3/day
tumors fully regressed ([2]; measured with calipers, confirmed during necropsy): 3
impact on animal weight ([2]; weighed throughout the study, 10 μg/g IV 3×/week): no impact
immediate Akt or ERK activation ([3]; 15′): no impact
pAkt and dpERK activation, late ([3]; after an hour (60′)): suppressed
effect on cell viability [4]: no effect
